Measured values published in patent US8673347B2 (Creabilis Therapeutics S.p.A., priority 2005, dated 2014).

Experiments:
[1] = system: transplanted psoriatic plaques; settings: 2 weeks of therapy, double-blinded, placebo-controlled; cited from earlier work
[2] = Dermal absorption study in mice of K-252a versus K-252a-PEG; assay type: in vivo; settings: male, Balb/C, mouse, plasma, topical, 3 mg/kg dermal
Description: The experiment was performed using a dose of active agent in both preparation of 3 mg/kg. For the present study, three subsequent experiments have been performed in vivo using each time 6 Balb/C male mice purchased from Charles River (Calco, Italy). The mice were subdivided in the following experimental groups (two animals per group): • Group 1: The mice were treated with 3 mg/kg of K-252-a, by dermal administration and sacrificed after 30 minutes. • Group 2: The mice were treated with 3 mg/kg of K-252-a by dermal administration and sacrificed after 60 minutes. • Group 3: The mice were treated with 3 mg/kg of K-252-a-PEG(2K) of Example 1 by dermal administration and sacrificed after 60 minutes.
The oil-based preparations are in form of emulsions which are rendered homogeneous by repeated sonication. […] The applied emulsion was gently massaged on the back of the mice to favor the absorption. The mice were then sacrificed respectively after 30 or 60 minutes under ether anaesthesia and the blood was collected from the ventral aorta with the insulin syringe (approx. 1 mL/animal). […] The blood samples were then centrifugated at 2000 g for 5 minutes in a refrigerated (4° C.) centrifuge, purified by solid phase extraction (SPE) and subsequently analyzed through HPLC quantitative analysis (RT-HPLC analysis with)(Terra C18 column, eluent water/ACN). […]

In the case of `COC(=O)[C@]1(O)C[C@@H]2O[C@@]1(C)n1c3ccccc3c3c4c(c5c6ccccc6n2c5c31)C(=O)NC4` [Compound K-252a, K-252a], the psoriasis improvement [1] is listed as “significantly improved”, the concentration at 30 min ([2]; sacrificed after 30 minutes) is listed as 23.3 ng/mL and the concentration at 60 min ([2]; sacrificed after 60 minutes) is listed as 42.1 ng/mL.
